Test results published in patent US9815833B2, “Pyridine derivative and medical use thereof” (Chengdu Easton Biopharmaceuticals Co., Ltd., priority 2013, dated 2017).

Experiments:
APTT of healthy mice = test: Effects on APTT of healthy mice; format: in vivo, KM mice; conditions: 5 mg/kg i.g.; for APTT (sec): KM mice, blood collected 1 hour after administration, x ± SD, 10 mice per group; for anticoagulant effect (APTT) compared with positive drug Apixaban: same dose
Source text: Test for four coagulation parameters (including prothrombin time (PT), activated partial thromboplastin time (APTT), thrombin time (TT) and fibrinogen (FIB)) belongs to one of clinical inspection items, and is necessary to thrombotic disease inspections or before the surgery. APTT mainly reflects whether the intrinsic coagulation system status is normal or not. Accordingly, the APTT value is used as a detection indicator in this test of the present invention. The anticoagulant effects of the compounds prepared in the Examples of the present invention were evaluated through the effects thereof on APTT of mice.
(§1) KM mice, weighing 28-30 g, male, 170 mice, provided by Chengdu Dashuo Biological Technology Co., Ltd.; Production facility license: SCXK (Chuan) 2008-24. Animals were housed in the animal room after purchased, adaptively observed for at least three days, and used for assays unless they were qualified for the quarantine standard.
(1) Grouping: mice were grouped and tested according to Table 1, wherein there were 10 mice in each group.
Mice in each group were administrated with the corresponding investigational drugs (mice in control group were administrated with the normal saline). At 1 hour after administration, blood was collected into 0.5 ml vacuum blood-collection tube containing sodium citrate from mice orbit. APTT values of animals were measured after collecting the blood samples.
Excel was used for statistics, experimental data were expressed as (x±SD), and two-sided T-test method was used to statistically compare the experimental data among multiple groups.

human FXa = human FXa (Homo sapiens, UniProt P00742); test: Human FXa inhibition assay (fluorogenic substrate); format: biochemical; conditions: human FXa 1 nM, substrate 106.7 μM, 30 minutes at room temperature, pH 8.0
Method: Inhibitory effects of the compounds of the present invention on human FXa were studied, to measure IC50 values thereof on human FXa.
human FXa enzyme (Sekisui Diagnostics, REF 526);
Fluorogenic substrate for the FXa assay (American diagnostic, Product No. 222F);
Buffer: 20 mM Tris-HCl, 200 mM NaCl, 2.5 mM CaCl2, pH 8.0.
(2) 10 mM of each compound was 5-fold diluted serially with buffer to different concentrations (from 40 μM to 0.00002048 μM);
(3) 6 μL of the above diluted solutions of Step (2) were added into each well of 384-well plate to make a final volume of 60 μL, and the final concentration of the compound ranged from 4 μM to […];
(4) 30 μL of human FXa enzyme (2 nM) was added into each well, with a final concentration of 1 nM;
(5) 24 μL human FXa fluorescent enzyme substrate (266.7 μM) was added into each well, with a final concentration of 106.7 μM;
(6) the plate was gently shaked for 5 minutes and then incubated for 30 minutes at room temperature, with avoidance from light;
(7) fluorescence signal was read at 360/440 nm, the inhibition percentage was measured, and 4 Parameter Logistic Model in Xlfit software was employed to calculate IC50.

[1] = Pharmacokinetic studies on healthy rats; format: in vivo; conditions: male, rat, po, SD rats, 10 mg/kg i.g., plasma; for AUC(0-t): read-out: AUC0-24
Source text: SD rats were used as test animals, and LC/MS/MS method was applied for measuring the drug concentrations of rats at different time after administrating the compounds of the present invention by gavage, respectively. Pharmacokinetic behaviors of the compounds of the present invention on rats were studied, so as to evaluate the pharmacokinetic characteristics thereof.
as §1, with “SD rats,” for “KM mice,”, “180-220” for “28-30”, “40 rats, 5 rats in each group,” for “170 mice,”
3.1 Grouping: the rats were randomly grouped according to Table 3, with no significant difference among the groups;
Rats in each group was administrated by gavage with the corresponding investigational drugs according to Table 3, at 5 min, 10 min, 20 min, 30 min, 1 h, 2 h, 4 h, 6 h, 8 h, 10 h, 12 h, 24 h after administration, 0.5 ml of blood was taken into the vacuum blood-collection tubes containing heparin sodium, and centrifuged at 5,000 rpm to obtain plasma which was stored at −20° C.
50 μL plasma at each time after administration was taken, then 150 μL of acetonitrile was added, which was subjected to vortex at 1500 rpm for 2 minutes. Solution was centrifuged for 15 minutes (3500 r/min), after that 10 μL supernatant was analyzed by HPLC/MS/MS.
The pharmacokinetic behaviors of the investigational compounds were subjected to compartmental model fitting, and DAS 2.0 software was used to calculate the main pharmacokinetic parameters.

human FXa, sequence (P00742 235-488 limits assumed): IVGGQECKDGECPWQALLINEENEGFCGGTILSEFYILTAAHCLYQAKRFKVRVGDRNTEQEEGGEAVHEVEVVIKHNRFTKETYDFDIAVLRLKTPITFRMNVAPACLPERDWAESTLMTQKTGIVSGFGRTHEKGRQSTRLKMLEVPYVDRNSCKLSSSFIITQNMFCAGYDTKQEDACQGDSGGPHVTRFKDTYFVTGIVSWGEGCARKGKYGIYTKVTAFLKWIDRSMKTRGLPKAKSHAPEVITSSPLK
human FXa, sequence (P00742 41-179 partner limits assumed): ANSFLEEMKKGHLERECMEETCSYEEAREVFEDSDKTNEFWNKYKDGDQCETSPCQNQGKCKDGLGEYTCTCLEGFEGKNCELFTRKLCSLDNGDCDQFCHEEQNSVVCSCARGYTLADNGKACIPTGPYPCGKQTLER

| SMILES | APTT (sec) (APTT of healthy mice) | anticoagulant effect (APTT) compared with positive drug Apixaban (APTT of healthy mice; mice, 1 h after administration) | IC50 (human FXa) | Cmax [1] | Tmax [1] | half-life [1] | AUC(0-t) [1] | APTT value compared with the control group (APTT of healthy mice; mice, 1 h after administration, P<0.01) |
| --- | --- | --- | --- | --- | --- | --- | --- | --- |
| COc1ccc(-n2nc(C(N)=O)c3c2C(=O)N(c2ccc(N4CCCCC4=O)cc2OC)CC3)cc1 [Example 21, 1-(4-methoxyphenyl)-7-oxo-6-[2-methoxy-4-(2-oxo-piperidin-1-yl)phenyl]-4,5,6,7-tetrahydro-1H-pyrazolo[3,4-c]pyridine-3-carboxamide] | 24.65 ± 2.18 * * ^Δ sec | superior to positive drug Apixaban | – | – | – | – | – | – |
| CSc1ccc(-n2nc(C(N)=O)c3c2C(=O)N(c2ccc(N4CCCCC4=O)cc2)CC3)cc1 [Example 2, 1-(4-methylthiophenyl)-7-oxo-6-[4-(2-oxo-piperidin-1-yl)phenyl]-4,5,6,7-tetrahydro-1H-pyrazolo[3,4-c]pyridine-3-carboxamide] | 24.50 ± 2.50 * * ^Δ sec | superior to positive drug Apixaban | – | – | – | – | – | – |
| COc1ccc(-n2nc(C(N)=O)c3c2C(=O)N(c2ccc(N4CCCC4=O)c(C)c2)CC3)cc1F [Example 18, 1-(3-fluoro-4-methoxyphenyl)-7-oxo-6-[3-methyl-4-(2-oxo-pyrrolidin-1-yl)phenyl]-4,5,6,7-tetrahydro-1H-pyrazolo[3,4-c]pyridine-3-carboxamide] | 28.96 ± 2.42 * * ^ΔΔ sec | significantly better than positive drug Apixaban | 0.091 nM | 8970 ng/mL | 0.25 h | 6.8 h | 35500 ng·h/mL | – |
| COc1ccccc1-n1nc(C(N)=O)c2c1C(=O)N(c1ccc(N3CCCC3=O)cc1C)CC2 [Example 10, 1-(2-methoxyphenyl)-7-oxo-6-[2-methyl-4-(2-oxo-pyrrolidin-1-yl)phenyl]-4,5,6,7-tetrahydro-1H-pyrazolo[3,4-c]pyridine-3-carboxamide] | 24.67 ± 2.37 * * ^Δ sec | superior to positive drug Apixaban | – | – | – | – | – | – |
| COc1ccc(-n2nc(C(N)=O)c3c2C(=O)N(c2ccc(N4CCCC4=O)cc2C)CC3)cc1F [Example 15, 1-(3-fluoro-4-methoxyphenyl)-7-oxo-6-[2-methyl-4-(2-oxo-pyrrolidin-1-yl)phenyl]-4,5,6,7-tetrahydro-1H-pyrazolo[3,4-c]pyridine-3-carboxamide] | 27.97 ± 2.32 * * ^ΔΔ sec | significantly better than positive drug Apixaban | 0.124 nM | 8750 ng/mL | 0.25 h | 6.5 h | 32400 ng·h/mL | – |
| NC(=O)c1nn(-c2cc(F)cc(F)c2)c2c1CCN(c1ccc(N3CCCC3=O)cc1)C2=O [Example 8, 1-(3,5-difluoro-phenyl)-7-oxo-6-[4-(2-oxo-pyrrolidin-1-yl)phenyl]-4,5,6,7-tetrahydro-1H-pyrazolo[3,4-c]pyridine-3-carboxamide] | 27.82 ± 2.71 * * ^ΔΔ sec | significantly better than positive drug Apixaban | – | 7860 ng/mL | 0.3 h | 6.2 h | 20100 ng·h/mL | – |
| COc1ccc(-n2nc(C(N)=O)c3c2C(=O)N(c2ccc(N4CCCCC4=O)cc2)CC3)cc1 [Apixaban, reference compound] | 21.46 ± 2.32 * * sec | – | – | 6850 ng/mL | 0.5 h | 5.2 h | 12900 ng·h/mL | significantly increase |
| COc1ccc(-n2nc(C(N)=O)c3c2C(=O)N(c2ccc(N4CCCCC4=O)cc2)CC3)cc1F [Example 4, 1-(3-fluoro-4-methoxyphenyl)-7-oxo-6-[4-(2-oxo-piperidin-1-yl)phenyl]-4,5,6,7-tetrahydro-1H-pyrazolo[3,4-c]pyridine-3-carboxamide] | 24.78 ± 2.64 * * ^Δ sec | superior to positive drug Apixaban | – | – | – | – | – | – |
| Cc1cc(N2CCCCC2=O)ccc1N1CCc2c(C(N)=O)nn(-c3cccc(F)c3)c2C1=O [Example 20, 1-(3-fluorophenyl)-7-oxo-6-[2-methyl-4-(2-oxo-piperidin-1-yl)phenyl]-4,5,6,7-tetrahydro-1H-pyrazolo[3,4-c]pyridine-3-carboxamide] | 24.71 ± 3.20 * * ^Δ sec | superior to positive drug Apixaban | – | – | – | – | – | – |
| NC(=O)c1nn(-c2ccccc2F)c2c1CCN(c1ccc(N3CCCCC3=O)cc1)C2=O [Example 3, 1-(2-fluorophenyl)-7-oxo-6-[4-(2-oxo-piperidin-1-yl)phenyl]-4,5,6,7-tetrahydro-1H-pyrazolo[3,4-c]pyridine-3-carboxamide] | 27.81 ± 3.42 * * ^ΔΔ sec | significantly better than positive drug Apixaban | – | – | – | – | – | – |
| Cc1ccc(-n2nc(C(N)=O)c3c2C(=O)N(c2ccc(N4CCCC4=O)cc2C)CC3)c(C)c1 [Example 13, 1-(2,4-dimethyl-phenyl)-7-oxo-6-[2-methyl-4-(2-oxo-pyrrolidin-1-yl)phenyl]-4,5,6,7-tetrahydro-1H-pyrazolo[3,4-c]pyridine-3-carboxamide] | 24.78 ± 2.67 * * ^Δ sec | superior to positive drug Apixaban | – | – | – | – | – | – |
| NC(=O)c1nn(-c2ccccc2F)c2c1CCN(c1ccc(N3CCCC3=O)cc1)C2=O [Example 6, 1-(2-fluorophenyl)-7-oxo-6-[4-(2-oxo-pyrrolidin-1-yl)phenyl]-4,5,6,7-tetrahydro-1H-pyrazolo[3,4-c]pyridine-3-carboxamide] | 27.32 ± 3.12 * * ^ΔΔ sec | significantly better than positive drug Apixaban | – | 7560 ng/mL | 0.3 h | 5.8 h | 19800 ng·h/mL | – |
| COc1ccc(-n2nc(C(N)=O)c3c2C(=O)N(c2ccc(N4CCCC4=O)cc2C)CC3)cc1 [Example 9, 1-(4-methoxyphenyl)-7-oxo-6-[2-methyl-4-(2-oxo-pyrrolidin-1-yl)phenyl]-4,5,6,7-tetrahydro-1H-pyrazolo[3,4-c]pyridine-3-carboxamide] | 31.29 ± 2.80 * * ^ΔΔ sec | significantly better than positive drug Apixaban | 0.078 nM | 9360 ng/mL | 0.2 h | 6.4 h | 36400 ng·h/mL | – |
| COc1ccc(-n2nc(C(N)=O)c3c2C(=O)N(c2ccc(N4CCCCC4=O)cc2C)CC3)cc1 [Example 19, 1-(4-methoxyphenyl)-7-oxo-6-[2-methyl-4-(2-oxo-piperidin-1-yl)phenyl]-4,5,6,7-tetrahydro-1H-pyrazolo[3,4-c]pyridine-3-carboxamide] | 26.73 ± 3.12 * * ^ΔΔ sec | significantly better than positive drug Apixaban | – | – | – | – | – | – |
